{"source": "patent US8257742B2", "about": "“Bisphosphonates for treating endometriosis” (Yissum Research Development Company of the Hebrew …, priority 2005, dated 2012)", "origin": "cited, not measured here", "test_system": "endometriosis explants", "settings": "in vivo", "data": [{"smiles": "C=CCn1c(=O)n([C@@H]2O[C@H](CO)[C@@H](O)[C@H]2O)c2nc(N)[nH]c(=O)c21", "note": "[loxoribine, Loxoribine]", "values": [{"measurement": "regression of endometriosis explants", "result": "Regression of endometriosis explants was observed"}]}]}
